Results on 4 compounds are retold here after patent US7736911B2, “Activity-based probes for protein tyrosine phosphatases” (Albert Einstein College of Medicine of Yeshiva University, priority 2004, dated 2010).

The subject of data set [1] is PTPs, including PTP1B, HePTP, SHP2, LAR, PTPα, PTPH1, VHR, and Cdc14. In words: PTP inactivation by BBP-based probes, several PTPs (pNPP substrate). The data set is classed as biochemical. As to conditions: for effectiveness at inhibiting PTP activity, I compared with II: pNPP as substrate.
The nature of data set [2]: Solubility in aqueous solution. As to conditions: compared with II. The data set is classed as physicochemical.
For data set [3], the system named is PTPs: YopH, PTP1B, HePTP, SHP2, FAP-1, PTPα, DEP-1, VHR, Cdc14, PRL3, low molecular weight PTP. Type of data set: binding. The conditions noted are these: pH 6.
Data set [4] is described as follows: Stability of probe in buffers and toward nucleophiles (NMR and mass spectrometry).
In data set [5] the test system is panel of non-PTP enzymes/proteins. The data set is classed as binding.
Data set [6] relates to total cell lysates from E. coli. Type of data set: binding.

arsenate [reference compound]: the “protection of PTP from BBP-mediated inactivation” value in data set [1] is given as “able to protect PTP from BBP-mediated inactivation”.
For `O=C(CCCCC1SCC2NC(=O)NC21)NCc1ccc(C(Br)P(=O)(O)O)cc1` (stereo not shown) [Compound I, [Bromo-(4-{[5-(2-oxo-hexahydro-thieno[3,4-d]imidazol-6-yl)-pentanoylamino]-methyl}-phenyl)-methyl]-phosphonic acid], in data set [2], the “solubility in aqueous solution” value was “better solubility in aqueous solution”. Moreover, in data set [1], the “effect of scavenging nucleophiles on rate of PTP inactivation” value is “did not affect the rate” and the “effectiveness at inhibiting PTP activity, I compared with II” value is “equally effective at inhibiting PTP activity”. Besides, the “reversibility of PTP inactivation” value in data set [1] (extensive dialysis and/or buffer exchange of the reaction mixture) was “irreversible”. Also, the “covalent labeling of PTPs” value in data set [3] was “covalently incorporated into all PTPs tested”. In addition, the “reaction with nucleophilic agents” value in data set [4] (48 hours with 100 mM DTT, 50 mM azide or 50 mM cysteine, pH 6 or 7 buffers) is listed as “did not produce the expected substitution products”. Besides, in data set [4] (pH 6 buffers), the stability in buffer result is “quite stable”. Also, the “stability in buffer (solvolysis)” value in data set [4] (pH>7) is listed as “significant solvolysis could be detected”. Moreover, the “reactivity towards non-PTP enzymes/proteins” value in data set [5] is “none of the proteins tested were reactive”. In addition, the “labeling of E. coli proteins” value in data set [6] is on record as “no E. coli proteins were labeled”.
With `O=C(O)CCCC[C@@H]1SC[C@@H]2NC(=O)N[C@@H]21` [biotin, reference compound], in data set [3], the “covalent labeling of PTPs” value was “did not label the PTPs”.
As to `O=C(CCCCC1SCC2NC(=O)NC21)NCCCCCC(=O)NCc1ccc(C(Br)P(=O)(O)O)cc1` (stereo not shown) [Compound II, {Bromo-[4-({6-[5-(2-oxo-hexahydro-thieno[3,4-d]imidazol-6-yl)-pentanoylamino]-hexanoylamino}-methyl)-phenyl]-methyl}-phosphonic acid], in data set [1], the “effectiveness at inhibiting PTP activity, I compared with II” value is “equally effective at inhibiting PTP activity”.
